Data as given in PubChem BioAssay AID1259411 (Chemical Carcinogenesis Research Information System (CCRIS), 2018).
The source made the active and inactive calls. No rule for the calls is given here.

System: rodent carcinogenicity bioassays, tumor incidence
Experiment: CCRIS carcinogenicity studies
Conditions: Route: ORAL
Method in brief: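 Archive of carcinogenicity, mutagenicity, tumor promotion and tumor inhibition results drawn from journals, NCI reports and other sources, expert-reviewed; covers 1985-2011 and is no longer updated.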

In the case of `Cc1cccc(Nc2cc(Cl)nc(SCC(=O)O)n2)c1C`, the carcinogen call (Species: MOUSE, Strain/Sex: STRAIN-CS/MALE, Dose: 0.1% (W/W) IN DIET FOR 6 MO THEN 0.05% IN DIET FOR 8.5 MO, Tumor Site: Type of Lesion: LIVER: HEPATOCELLULAR CARCINOMA) is reported as “active; positive”, the carcinogen call (Species: RAT, Strain/Sex: CD-1/MALE, Dose: 0, 50 PPM IN DIET FOR 43 WK FOLLOWED BY 25 PPM IN FEED FOR 61 WK (STUDY DURATION: 2 YR), Tumor Site: Type of Lesion: LIVER: ADENOMA, ADENOMA OR CARCINOMA, TESTES: LEYDIG CELL ADENOMA, PANCREAS: ACINAR CELL ADENOMA OR CARCINOMA, Tumor Site: Type of Lesion: LIVER: ADENOMA, ADENOMA OR CARCINOMA, TESTES: LEYDIG CELL ADENOMA, PANCREAS: ACINAR CELL ADENOMA OR CARCINOMA) is reported as “active; positive” and the carcinogen call (Species: RAT, Strain/Sex: F344/MALE, Dose: 0, 0.05, 0.10% IN DIET STARTED AT 2 MO OF AGE FOR STUDY DURATION (STUDY DURATION: 22 WK), Dose: 0, 0.05, 0.10% IN DIET STARTED AT 2 MO OF AGE FOR STUDY DURATION (STUDY DURATION: 22 WK), Tumor Site: Type of Lesion: LIVER: HEPATOCELLULAR CARCINOMA, HEPATOCELLULAR ADENOMA) is reported as “active; positive”. For the same compound, the carcinogen call (Species: RAT, Strain/Sex: F344/MALE, Dose: 0.00, 0.05, 0.10% IN DIET STARTED AT 15 MO OF AGE FOR STUDY DURATION (STUDY DURATION: 22 WK), Dose: 0.00, 0.05, 0.10% IN DIET STARTED AT 15 MO OF AGE FOR STUDY DURATION (STUDY DURATION: 22 WK), Tumor Site: Type of Lesion: LIVER: HEPATOCELLULAR CARCINOMA, HEPATOCELLULAR ADENOMA) was “active; positive”, the carcinogen call (Species: RAT, Strain/Sex: F344/MALE, Dose: 0, 0.1% IN DIET FOR 22 WK (STUDY DURATION: 22 WK)) was “inactive; negative” and the carcinogen call (Species: RAT, Strain/Sex: F344/MALE, Dose: 0, 0.1% IN DIET FOR 22 WK FOLLOWED BY BASAL DIET UNTIL TERMINATION AT 37, 52, OR 104 WK, RESPECTIVELY (STUDY DURATION: 3) was “inactive; negative”. The carcinogen call (Species: RAT, Strain/Sex: F344/MALE, Dose: 0, 0.1% IN DIET FOR 37 WK (STUDY DURATION: 37 WK), Tumor Site: Type of Lesion: LIVER: HEPATOCELLULAR ADENOMA) was “active; positive”, the carcinogen call (Species: RAT, Strain/Sex: F344/MALE, Dose: 0, 0.1% IN DIET FOR 37 WK FOLLOWED BY BASAL DIET UNTIL TERMINATION AT 52 OR 104 WK (STUDY DURATION: 52 OR 104 WK)) was “inactive; negative” and the carcinogen call (Species: RAT, Strain/Sex: F344/MALE, Dose: 0, 0.1% IN DIET FOR 52 WK (STUDY DURATION: 52 WK), Tumor Site: Type of Lesion: LIVER: HEPATOCELLULAR ADENOMA, HEPATOCELLULAR CARCINOMA) was “active; positive”. The carcinogen call (Species: RAT, Strain/Sex: F344/MALE, Dose: 0, 0.1% IN DIET FOR 52 WK FOLLOWED BY BASAL DIET UNTIL TERMINATION AT 104 WK (STUDY DURATION: 104 WK), Tumor Site: Type of Lesion: LIVER: HEPATOCELLULAR ADENOMA OR CARCINOMA) was “active; positive”, the carcinogen call (Species: RAT, Strain/Sex: F344/MALE, Dose: 0, 0.1% IN DIET FOR 78 WK (STUDY DURATION: 78 WK), Tumor Site: Type of Lesion: LIVER: NEOPLASM) was “active; positive” and the carcinogen call (Species: RAT, Strain/Sex: F344/MALE, Dose: 0.1% (W/W) IN DIET FOR 16 MO, Tumor Site: Type of Lesion: LIVER: HEPATOCELLULAR CARCINOMA) was “active; positive”. For the same compound, the carcinogen call (Species: RAT, Strain/Sex: F344/MALE, Dose: 0.1% IN DIET FOR 11 WK FOLLOWED BY CONTROL DIET FOR DURATION OF STUDY (STUDY DURATION: 56 WK)) was “inactive; negative”, the carcinogen call (Species: RAT, Strain/Sex: F344/MALE, Dose: 0.1% IN DIET FOR 43 WK (STUDY DURATION: 56 WK), Tumor Site: Type of Lesion: LIVER: HEPATOCELLULAR CARCINOMA) was “active; positive” and the carcinogen call (Species: RAT, Strain/Sex: F344/MALE, Dose: 0.1% IN DIET FOR 54 WK (STUDY DURATION: 56 WK), Tumor Site: Type of Lesion: LIVER: HEPATOCELLULAR CARCINOMA) was “active; positive”. For the same compound, the carcinogen call (Species: RAT, Strain/Sex: F344/MALE, Dose: 0.2% (W/W) IN DIET FOR 65 WK, Tumor Site: Type of Lesion: LIVER: HEPATOCELLULAR CARCINOMA) was “active; positive”.
For `Nc1ccc(Cc2ccc(N)cc2)cc1`, the carcinogen call (Species: MOUSE, Strain/Sex: B6C3F1/FEMALE, Dose: 0, 0.015, 0.03% IN DIET FOR 103 WK (STUDY DURATION: 104 WK), Dose: 0, 0.015, 0.03% IN DIET FOR 103 WK (STUDY DURATION: 104 WK), Tumor Site: Type of Lesion: THYROID GLAND: FOLLICULAR ADENOMA, LIVER: HEPATOCELLULAR ADENOMA, LIVER: HEPATOCELLULAR CARCINOMA, Tumor Site: Type of Lesion: THYROID GLAND: FOLLICULAR ADENOMA, LIVER: HEPATOCELLULAR ADENOMA, LIVER: HEPATOCELLULAR CARCINOMA) was “active; positive”, the carcinogen call (Species: MOUSE, Strain/Sex: B6C3F1/FEMALE, Dose: 0, 150, 300 PPM IN DRINKING WATER, Dose: 0, 150, 300 PPM IN DRINKING WATER, Tumor Site: Type of Lesion: THYROID GLAND: FOLLICULAR CELL ADENOMA, CARCINOMA, LIVER: HEPATOCELLULAR ADENOMA, CARCINOMA, LYMPHATIC SYSTEM: MALIGNANT, Tumor Site: Type of Lesion: THYROID GLAND: FOLLICULAR CELL ADENOMA, CARCINOMA, LIVER: HEPATOCELLULAR ADENOMA, CARCINOMA, LYMPHATIC SYSTEM: MALIGNANT) was “active; positive” and the carcinogen call (Species: MOUSE, Strain/Sex: B6C3F1/MALE, Dose: 0, 0.015, 0.03% IN DIET FOR 103 WK (STUDY DURATION: 104 WK), Dose: 0, 0.015, 0.03% IN DIET FOR 103 WK (STUDY DURATION: 104 WK), Tumor Site: Type of Lesion: THYROID GLAND: FOLLICULAR ADENOMA, LIVER: HEPATOCELLULAR CARCINOMA) was “active; positive”. The carcinogen call (Species: MOUSE, Strain/Sex: B6C3F1/MALE, Dose: 0, 150, 300 PPM IN DRINKING WATER, Dose: 0, 150, 300 PPM IN DRINKING WATER, Tumor Site: Type of Lesion: THYROID GLAND: FOLLICULAR CELL ADENOMA, ADRENAL GLAND: PHEOCHROMOCYTOMA, LIVER: HEPATOCELLULAR ADENOMA, CARCINOMA, Tumor Site: Type of Lesion: THYROID GLAND: FOLLICULAR CELL ADENOMA, ADRENAL GLAND: PHEOCHROMOCYTOMA, LIVER: HEPATOCELLULAR ADENOMA, CARCINOMA) was “active; positive”, the carcinogen call (Species: RAT, Strain/Sex: F344/FEMALE, Dose: 0, 0.015, 0.03% IN DIET FOR 103 WK (STUDY DURATION: 104 WK), Dose: 0, 0.015, 0.03% IN DIET FOR 103 WK (STUDY DURATION: 104 WK), Tumor Site: Type of Lesion: THYROID GLAND: FOLLICULAR ADENOMA) was “active; positive” and the carcinogen call (Species: RAT, Strain/Sex: F344/FEMALE, Dose: 0, 150, 300 PPM IN DRINKING WATER, Dose: 0, 150, 300 PPM IN DRINKING WATER, Tumor Site: Type of Lesion: THYROID GLAND: FOLLICULAR CELL ADENOMA, CARCINOMA, C CELL ADENOMA, CARCINOMA) was “active; positive”. The carcinogen call (Species: RAT, Strain/Sex: F344/MALE, Dose: 0, 0.15, 0.03% IN DIET FOR 103 WK (STUDY DURATION: 104 WK), Dose: 0, 0.15, 0.03% IN DIET FOR 103 WK (STUDY DURATION: 104 WK), Tumor Site: Type of Lesion: THYROID GLAND: FOLLICULAR CARCINOMA, LIVER: NEOPLASTIC NODULE) was “active; positive” and the carcinogen call (Species: RAT, Strain/Sex: F344/MALE, Dose: 0, 150, 300 PPM IN DRINKING WATER, Dose: 0, 150, 300 PPM IN DRINKING WATER, Tumor Site: Type of Lesion: THYROID GLAND: FOLLICULAR CELL ADENOMA, CARCINOMA, LIVER: NEOPLASTIC NODULE) was “active; positive”.
